# How the values were obtained:
# [1] = system: P. Aeruginosa (ATCC27853); assay: MIC, broth microdilution (CLSI), standard strain; assay type: cell-based; conditions: Pseudomonas aeruginosa; P. Aeruginosa (ATCC27853); read-out: MIC
# From the text: (§1) 6 standard strains and 3 clinical isolates were used to the preliminary evaluation of in vitro antibacterial activities of oxazolidinone-fluoroquinolone hybrids. For the further evaluation of hybrids OBP-4 and OBP-5, 263 clinical isolates including S. aureus (46), S. haemolyticus(32), S. epidermidis (10), E. faecalis (72), E. faecium (47), S. pneumoniae (13), H. parasuis (34), S. suis (9), and 8 resistant strains including MRSA, MRSE, CIP-resistant S. aureus and S. haemolyticus, VAN and quinolone-resistant S. pneumoniae, LZD-resistant E. faecalis, LZD/VAN and quinolone-resistant E. faecium were collected and tested.
# (§2) Susceptibility testing of oxazolidinone-fluoroquinolone hybrids against various bacteria was performed by the broth microdilution method as outlined by the Clinical and Laboratory Standards Institute (CLSI). Three types of media, including cation-adjusted Mueller Hinton broth, Haemophilus Test Medium and cation-adjusted Mueller Hinton broth that contained 3%–5% lysed horse blood, were used to culture the corresponding bacteria. All compounds including comparator drugs were dissolved in an appropriate solvent at a concentration of 2.048 mg/mL and then serially diluted two-fold to provide the required concentrations. A final inoculum of 5 × 10^5 CFU/mL was used and plates were read after incubation for 16–24 h at 35 °C. […] Standard quality control strains (ATCC) were included throughout. Each determination was repeated in triplicate.
# [2] = system: S. pneumoniae (ATCC49619); assay: MIC, broth microdilution (CLSI), standard strain; assay type: cell-based; conditions: Streptococcus pneumoniae
# From the text: as §1, §2
# E. coli (ATCC25922) = assay: MIC, broth microdilution (CLSI), standard strain; assay type: cell-based; conditions: Escherichia coli; E. coli (ATCC25922); read-out: MIC
# From the text: as §1, §2
# E. faecalis (ATCC29212) = assay: MIC, broth microdilution (CLSI), standard strain; assay type: cell-based; conditions: Enterococcus faecalis; E. faecalis (ATCC29212); read-out: MIC
# From the text: as §1, §2
# [3] = system: H. influenzae (ATCC49247); assay: MIC, broth microdilution (CLSI), standard strain; assay type: cell-based; conditions: Haemophilus influenzae
# From the text: as §1, §2
# S. aureus (ATCC29213) = assay: MIC, broth microdilution (CLSI), standard strain; assay type: cell-based; conditions: Staphylococcus aureus
# From the text: as §1, §2
# [4] = system: S. agalactiae^R (13B317), levofloxacin-resistant S. agalactiae; assay: MIC, broth microdilution (CLSI), clinical isolate; assay type: cell-based; conditions: Streptococcus agalactiae; levofloxacin-resistant S. agalactiae (13B317)
# From the text: as §1, §2
# MRSA (13B262) = assay: MIC, broth microdilution (CLSI), clinical isolate; assay type: cell-based; conditions: Staphylococcus aureus
# From the text: as §1, §2
# VRE (13B330) = assay: MIC, broth microdilution (CLSI), clinical isolate; assay type: cell-based, vancomycin-resistant enterococcus; conditions: Enterococcus
# From the text: as §1, §2
# [5] = system: LZD-resistant E. faecalis; assay: microbe, parasite or virus in culture; assay type: cell-based; conditions: Enterococcus faecalis
# Protocol: (§3) 6 standard strains and 3 clinical isolates were used to the preliminary evaluation of in vitro antibacterial activities of oxazolidinone-fluoroquinolone hybrids.
# as §2, with “All compounds including comparator drugs were dissolved in an appropriate solvent at a concentration of 2.048 mg/mL and then serially diluted two-fold to provide the required concentrations.” left out
# MRSE = assay: MIC against drug-resistant strain; assay type: cell-based, S. epidermidis; conditions: Staphylococcus epidermidis
# Protocol: as §3
# as §2, with “All compounds including comparator drugs were dissolved in an appropriate solvent at a concentration of 2.048 mg/mL and then serially diluted two-fold to provide the required concentrations.” left out
# [6] = system: S. epidermidis (10) clinical isolates; assay: Susceptibility of clinical isolates (MIC); assay type: cell-based, Staphylococcus epidermidis
# Protocol: as §2, with “All compounds including comparator drugs were dissolved in an appropriate solvent at a concentration of 2.048 mg/mL and then serially diluted two-fold to provide the required concentrations.” left out
# [7] = system: S. haemolyticus (32) clinical isolates; assay: Susceptibility of clinical isolates (MIC); assay type: cell-based, Staphylococcus haemolyticus
# Protocol: as §2, with “All compounds including comparator drugs were dissolved in an appropriate solvent at a concentration of 2.048 mg/mL and then serially diluted two-fold to provide the required concentrations.” left out
# [8] = system: VAN and quinolone-resistant E. faecium; assay: MIC against drug-resistant strain; assay type: cell-based; conditions: Enterococcus faecium
# Protocol: as §3
# as §2, with “All compounds including comparator drugs were dissolved in an appropriate solvent at a concentration of 2.048 mg/mL and then serially diluted two-fold to provide the required concentrations.” left out
# [9] = system: CIP-resistant S. haemolyticus; assay: MIC against drug-resistant strain; assay type: cell-based; conditions: Staphylococcus haemolyticus
# Protocol: as §3
# as §2, with “All compounds including comparator drugs were dissolved in an appropriate solvent at a concentration of 2.048 mg/mL and then serially diluted two-fold to provide the required concentrations.” left out
# [10] = system: LZD and quinolone-resistant E. faecium; assay: MIC against drug-resistant strain; assay type: cell-based; conditions: Enterococcus faecium
# Protocol: as §3
# as §2, with “All compounds including comparator drugs were dissolved in an appropriate solvent at a concentration of 2.048 mg/mL and then serially diluted two-fold to provide the required concentrations.” left out
# CIP-resistant S. aureus = assay: MIC against drug-resistant strain; assay type: cell-based; conditions: Staphylococcus aureus
# Protocol: as §3
# as §2, with “All compounds including comparator drugs were dissolved in an appropriate solvent at a concentration of 2.048 mg/mL and then serially diluted two-fold to provide the required concentrations.” left out
# MRSA = assay: MIC against drug-resistant strain; assay type: cell-based; conditions: Staphylococcus aureus
# Protocol: as §3
# as §2, with “All compounds including comparator drugs were dissolved in an appropriate solvent at a concentration of 2.048 mg/mL and then serially diluted two-fold to provide the required concentrations.” left out
# [11] = system: VAN and quinolone-resistant S. pneumoniae; assay: MIC against drug-resistant strain; assay type: cell-based; conditions: Streptococcus pneumoniae
# Protocol: as §3
# as §2, with “All compounds including comparator drugs were dissolved in an appropriate solvent at a concentration of 2.048 mg/mL and then serially diluted two-fold to provide the required concentrations.” left out
# [12] = system: H. parasuis (34) clinical isolates; assay: Susceptibility of clinical isolates (MIC); assay type: cell-based, Haemophilus parasuis; conditions: Glaesserella parasuis
# Protocol: as §2, with “All compounds including comparator drugs were dissolved in an appropriate solvent at a concentration of 2.048 mg/mL and then serially diluted two-fold to provide the required concentrations.” left out
# [13] = system: S. suis (9) clinical isolates; assay: Susceptibility of clinical isolates (MIC); assay type: cell-based, Streptococcus suis; conditions: Streptococcus suis
# Protocol: as §2, with “All compounds including comparator drugs were dissolved in an appropriate solvent at a concentration of 2.048 mg/mL and then serially diluted two-fold to provide the required concentrations.” left out
# [14] = system: S. aureus (46) clinical isolates; assay: Susceptibility of clinical isolates (MIC); assay type: cell-based, Staphylococcus aureus
# Protocol: as §2, with “All compounds including comparator drugs were dissolved in an appropriate solvent at a concentration of 2.048 mg/mL and then serially diluted two-fold to provide the required concentrations.” left out
# [15] = system: S. pneumoniae (13) clinical isolates; assay: Susceptibility of clinical isolates (MIC); assay type: cell-based, Streptococcus pneumoniae
# Protocol: as §2, with “All compounds including comparator drugs were dissolved in an appropriate solvent at a concentration of 2.048 mg/mL and then serially diluted two-fold to provide the required concentrations.” left out
# [16] = system: E. faecium (47) clinical isolates; assay: Susceptibility of clinical isolates (MIC); assay type: cell-based, Enterococcus faecium
# Protocol: as §2, with “All compounds including comparator drugs were dissolved in an appropriate solvent at a concentration of 2.048 mg/mL and then serially diluted two-fold to provide the required concentrations.” left out
smiles,measurement,setting,value
"O=C(O)c1cn(C2CC2)c2cc(N3CCC(O)(COc4ccc(N5C[C@H](CO)OC5=O)cc4F)CC3)c(F)cc2c1=O [CZD, cadazolid, reference compound]",MIC,[1],64 µg/mL
same,MIC,[2],0.062 µg/mL
same,MIC,E. coli (ATCC25922),8 µg/mL
same,MIC,E. faecalis (ATCC29212),0.5 µg/mL
same,MIC,[3],1 µg/mL
same,MIC,S. aureus (ATCC29213),0.5 µg/mL
same,MIC,[4],0.125 µg/mL
same,MIC,MRSA (13B262),0.5 µg/mL
same,MIC,VRE (13B330),0.25 µg/mL
C[C@H]1COc2c(N3CCC(O)(COc4ccc(N5C[C@H](CO)OC5=O)cc4F)CC3)c(F)c(N)c3c(=O)c(C(=O)O)cn1c23 [OBP-3],MIC,[1],128 µg/mL
same,MIC,[2],0.5 µg/mL
same,MIC,E. coli (ATCC25922),64 µg/mL
same,MIC,E. faecalis (ATCC29212),1 µg/mL
same,MIC,[3],2 µg/mL
same,MIC,S. aureus (ATCC29213),2 µg/mL
same,MIC,[4],0.5 µg/mL
same,MIC,MRSA (13B262),2 µg/mL
same,MIC,VRE (13B330),2 µg/mL
"CN[C@H](CC(C)C)C(=O)N[C@H]1C(=O)N[C@@H](CC(N)=O)C(=O)N[C@H]2C(=O)N[C@H]3C(=O)N[C@H](C(=O)N[C@H](C(=O)O)c4cc(O)cc(O)c4-c4cc3ccc4O)[C@H](O)c3ccc(c(Cl)c3)Oc3cc2cc(c3O[C@@H]2O[C@H](CO)[C@@H](O)[C@H](O)[C@H]2O[C@H]2C[C@](C)(N)[C@H](O)[C@H](C)O2)Oc2ccc(cc2Cl)[C@H]1O [VAN, vancomycin]",MIC,[5],2 µg/mL
same,MIC,MRSE,1 µg/mL
same,CLSI %S (susceptible),"[6]; S. epidermidis clinical isolates, CLSI criteria",100.0/- %
same,MIC50,[6]; Staphylococcus epidermidis,1 µg/mL
same,MIC90,[6]; Staphylococcus epidermidis,2 µg/mL
same,MIC,"[6]; Staphylococcus epidermidis, read-out: MIC Range",1 to 2 µg/mL
same,CLSI %S (susceptible),"[7]; S. haemolyticus clinical isolates, CLSI criteria",96.2/- %
same,MIC50,[7]; Staphylococcus haemolyticus,0.5 µg/mL
same,MIC90,[7]; Staphylococcus haemolyticus,2 µg/mL
same,MIC,"[7]; Staphylococcus haemolyticus, read-out: MIC Range",0.0625 to 4 µg/mL
same,MIC,[8],16 µg/mL
same,MIC,[9],2 µg/mL
same,MIC,[10],4 µg/mL
same,MIC,CIP-resistant S. aureus,0.25 µg/mL
same,MIC,MRSA,1 µg/mL
same,MIC,[11],> 32 µg/mL
same,MIC50,[12],8 µg/mL
same,MIC90,[12],> 32 µg/mL
same,MIC50,[13],0.25 µg/mL
same,MIC90,[13],2 µg/mL
same,MIC,[13]; read-out: MIC Range,0.125 to 2 µg/mL
same,CLSI %S (susceptible),"[14]; S. aureus clinical isolates, CLSI criteria",100.0/- %
same,MIC50,[14]; Staphylococcus aureus,0.5 µg/mL
same,MIC90,[14]; Staphylococcus aureus,0.5 µg/mL
same,MIC,"[14]; Staphylococcus aureus, read-out: MIC Range",0.25 to 0.5 µg/mL
same,CLSI %S (susceptible),"[15]; S. pneumoniae clinical isolates, CLSI criteria",53.8/- %
same,MIC50,[15]; Streptococcus pneumoniae,1 µg/mL
same,MIC90,[15]; Streptococcus pneumoniae,32 µg/mL
same,CLSI %S (susceptible),"[16]; E. faecium clinical isolates, CLSI criteria",100.0/- %
same,MIC Range,"[16]; E. faecium, 47 clinical isolates",0.5 to 4 µg/mL
same,MIC50,[16]; Enterococcus faecium,2 µg/mL
same,MIC90,[16]; Enterococcus faecium,4 µg/mL
CN1COc2c(N3CC4C(C3)C4Nc3ccc(N4C[C@H](CO)OC4=O)cc3F)c(F)cc3c(=O)c(C(=O)O)cn1c23 (some centres unmarked) [OBP-6],MIC,[1],16 µg/mL
same,MIC,[2],0.5 µg/mL
same,MIC,E. coli (ATCC25922),1 µg/mL
same,MIC,E. faecalis (ATCC29212),4 µg/mL
same,MIC,[3],0.016 µg/mL
same,MIC,S. aureus (ATCC29213),0.062 µg/mL
same,MIC,[4],2 µg/mL
same,MIC,MRSA (13B262),64 µg/mL
same,MIC,VRE (13B330),64 µg/mL
